Here are results for 17 compounds from ChEMBL document CHEMBL5550148, “Systematic alanine and stapling mutational analysis of antimicrobial peptide Chem-KVL” (Bioorg Med Chem Lett, 2024).

For one data set, the system named is Klebsiella pneumoniae. As to the kind of experiment: Antibacterial activity against Klebsiella pneumoniae ATCC 13883 assessed as inhibition of bacterial growth. Type of data set: functional.
The next data set has as its system Acinetobacter baumannii. As to the kind of experiment: Antibacterial activity against Acinetobacter baumannii ATCC 17978 assessed as inhibition of bacterial growth. Type of data set: functional.
Data set [1] is described as follows: Retention time of compound by HPLC analysis. Type of data set: physicochemical.
Another data set has as its system Salmonella typhimurium. As to the kind of experiment: Antibacterial activity against Salmonella typhimurium clinical isolate assessed as inhibition of bacterial growth. It is filed as functional, Salmonella enterica subsp. enterica serovar Typhimurium. Particulars: Salmonella enterica.
Another data set has as its system Escherichia coli. As to the kind of experiment: Antibacterial activity against Escherichia coli ATCC 25922 assessed as inhibition of bacterial growth. It is filed as functional.
A further data set concerns Pseudomonas aeruginosa. Put plainly: Antibacterial activity against Pseudomonas aeruginosa ATCC 27853 assessed as inhibition of bacterial growth. Type of data set: functional.
The next data set has as its system Staphylococcus aureus. As to the kind of experiment: Antibacterial activity against Staphylococcus aureus ATCC 25923 assessed as inhibition of bacterial growth. It is filed as functional.

Values after ≈ are worked out from the molar mass of the structure shown. Bridge positions count the residues as written; N and C are the ends. Square brackets hold non-standard residues; d marks the D form. Peptide text beside a SMILES is read from it. S5 = C=CCCC[C@](C)(N)C(=O)O Some results are limits rather than exact numbers.

In the case of `CC(=O)N[C@@H](CCCCN)C(=O)N[C@H](C(=O)N[C@@H](CC(C)C)C(=O)NCC(=O)N[C@@]1(C)CCC/C=C\CCC[C@@](C)(C(=O)N[C@@H](CC(C)C)C(=O)NCC(=O)N[C@@H](CCCNC(=N)N)C(=O)N[C@@H](CC(C)C)C(=O)N[C@H](C(=O)O)C(C)C)NC(=O)[C@H](CCCCN)NC(=O)[C@H](C(C)C)NC(=O)[C@H](CC(C)C)NC1=O)C(C)C` (Ac-KVLG[S5]LVK[S5]LGRLV-OH; staple (Z) 5-9), the MIC (as a rule, the lowest concentration found to suppress growth) was greater than 64 µg/mL in the data set with Klebsiella pneumoniae; 64 µg/mL (≈ 40.3 µM) with Acinetobacter baumannii; greater than 64 µg/mL in the data set on Salmonella typhimurium; 64 µg/mL (≈ 40.3 µM) with Escherichia coli; 4 µg/mL (≈ 2.52 µM) in the data set with Pseudomonas aeruginosa; 4 µg/mL (≈ 2.52 µM) in the data set on Staphylococcus aureus. The Time in data set [1] amounted to 30.8 min.
Turning to Ac-KVLGRLVKVLGRAV-NH2, the minimum inhibitory concentration (MIC) in the data set on Klebsiella pneumoniae was greater than 64 µg/mL; in the data set with Acinetobacter baumannii, 64 µg/mL; with Salmonella typhimurium it was 32 µg/mL; with Escherichia coli it was greater than 64 µg/mL; in the data set with Pseudomonas aeruginosa, greater than 64 µg/mL; with Staphylococcus aureus it was greater than 64 µg/mL. In data set [1], the Time was 22.7 min.
Regarding `CC(=O)N[C@@H](CCCCN)C(=O)N[C@H](C(=O)N[C@@H](CC(C)C)C(=O)NCC(=O)N[C@@H](CCCNC(=N)N)C(=O)N[C@@H](CC(C)C)C(=O)N[C@H](C(=O)N[C@@H](CCCCN)C(=O)N[C@@]1(C)CCC/C=C\CCC[C@@](C)(C(=O)N[C@H](C(N)=O)C(C)C)NC(=O)[C@H](CCCNC(=N)N)NC(=O)CNC(=O)[C@H](CC(C)C)NC1=O)C(C)C)C(C)C` (Ac-KVLGRLVK[S5]LGR[S5]V-NH2; staple (Z) 9-13), the MIC in the data set on Klebsiella pneumoniae is 64 µg/mL (≈ 39.3 µM); with Acinetobacter baumannii, 32 µg/mL (≈ 19.6 µM); with Salmonella typhimurium, 64 µg/mL (≈ 39.3 µM); in the data set with Escherichia coli, 32 µg/mL (≈ 19.6 µM); in the data set with Pseudomonas aeruginosa, 4 µg/mL (≈ 2.46 µM); in the data set on Staphylococcus aureus it was 8 µg/mL (≈ 4.91 µM). This compound also gave a Time in data set [1] of 27.9 min.
Regarding Ac-KVLARLVKVLGRLV-NH2, the MIC with Klebsiella pneumoniae was 64 µg/mL; with Acinetobacter baumannii, 32 µg/mL; in the data set with Salmonella typhimurium, 64 µg/mL; in the data set on Escherichia coli, 32 µg/mL; in the data set with Pseudomonas aeruginosa, 32 µg/mL; in the data set with Staphylococcus aureus, 4 µg/mL. The same compound returned a Time in data set [1] of 26.8 min.
Take Ac-KVLGALVKVLGRLV-NH2: the MIC in the data set on Klebsiella pneumoniae was found to be 32 µg/mL; in the data set with Acinetobacter baumannii it was 32 µg/mL; in the data set with Salmonella typhimurium it was 64 µg/mL; with Escherichia coli, 32 µg/mL; in the data set on Pseudomonas aeruginosa, 16 µg/mL; in the data set with Staphylococcus aureus, 8 µg/mL. The compound further displayed a Time in data set [1] of 28.4 min.
For Ac-KVLGRLVKVLGRLA-NH2, the MIC is 64 µg/mL in the data set on Klebsiella pneumoniae; 32 µg/mL in the data set on Acinetobacter baumannii; 32 µg/mL in the data set on Salmonella typhimurium; 16 µg/mL in the data set with Escherichia coli; greater than 64 µg/mL with Pseudomonas aeruginosa; 64 µg/mL in the data set on Staphylococcus aureus. The compound also gave a Time in data set [1] of 24.2 min.
For Ac-KVLGRLAKVLGRLV-NH2, the MIC in the data set on Klebsiella pneumoniae was 64 µg/mL; in the data set on Acinetobacter baumannii, 32 µg/mL; with Salmonella typhimurium it was 16 µg/mL; in the data set on Escherichia coli, 8 µg/mL; in the data set with Pseudomonas aeruginosa, 64 µg/mL; in the data set on Staphylococcus aureus, 32 µg/mL. The compound also returned a Time in data set [1] of 24.5 min.
In the case of Ac-KVAGRLVKVLGRLV-NH2, the MIC was greater than 64 µg/mL in the data set with Klebsiella pneumoniae; greater than 64 µg/mL with Acinetobacter baumannii; 64 µg/mL with Salmonella typhimurium; 64 µg/mL in the data set on Escherichia coli; greater than 64 µg/mL in the data set with Pseudomonas aeruginosa; greater than 64 µg/mL in the data set on Staphylococcus aureus. This compound registered a Time in data set [1] of 22.4 min.
Consider `CC(=O)N[C@@H](CCCCN)C(=O)N[C@H](C(=O)N[C@@H](CC(C)C)C(=O)NCC(=O)N[C@@H](CCCNC(=N)N)C(=O)N[C@@H](CC(C)C)C(=O)N[C@@]1(C)CCC/C=C\CCC[C@@](C)(C(=O)N[C@@H](CCCNC(=N)N)C(=O)N[C@@H](CC(C)C)C(=O)N[C@H](C(N)=O)C(C)C)NC(=O)[C@H](CC(C)C)NC(=O)[C@H](C(C)C)NC(=O)[C@H](CCCCN)NC1=O)C(C)C` (Ac-KVLGRL[S5]KVL[S5]RLV-NH2; staple (Z) 7-11), for which the minimum inhibitory concentration (MIC) in the data set on Klebsiella pneumoniae was greater than 64 µg/mL; in the data set with Acinetobacter baumannii, greater than 64 µg/mL; in the data set on Salmonella typhimurium, greater than 64 µg/mL; in the data set on Escherichia coli, greater than 64 µg/mL; in the data set on Pseudomonas aeruginosa, 32 µg/mL (≈ 19 µM); in the data set on Staphylococcus aureus, 16 µg/mL (≈ 9.49 µM). The compound also displayed a Time in data set [1] of 30.6 min.
On to Ac-KALGRLVKVLGRLV-NH2, for which the MIC stood at 32 µg/mL in the data set with Klebsiella pneumoniae; 16 µg/mL in the data set with Acinetobacter baumannii; 16 µg/mL in the data set on Salmonella typhimurium; 8 µg/mL with Escherichia coli; 64 µg/mL with Pseudomonas aeruginosa; 32 µg/mL in the data set on Staphylococcus aureus. The Time in data set [1] was 24.4 min.
Take `CC(=O)N[C@@H](CCCCN)C(=O)N[C@H](C(=O)N[C@@]1(C)CCC/C=C\CCC[C@@](C)(C(=O)N[C@@H](CCCCN)C(=O)N[C@H](C(=O)N[C@@H](CC(C)C)C(=O)NCC(=O)N[C@@H](CCCNC(=N)N)C(=O)N[C@@H](CC(C)C)C(=O)N[C@H](C(N)=O)C(C)C)C(C)C)NC(=O)[C@H](CC(C)C)NC(=O)[C@H](CCCNC(=N)N)NC(=O)CNC1=O)C(C)C` (Ac-KV[S5]GRL[S5]KVLGRLV-NH2; staple (Z) 3-7): the MIC with Klebsiella pneumoniae is greater than 64 µg/mL; with Acinetobacter baumannii it was 64 µg/mL (≈ 39.3 µM); in the data set on Salmonella typhimurium, greater than 64 µg/mL; in the data set on Escherichia coli, 64 µg/mL (≈ 39.3 µM); in the data set with Pseudomonas aeruginosa, 16 µg/mL (≈ 9.82 µM); with Staphylococcus aureus it was 4 µg/mL (≈ 2.46 µM). The compound also showed a Time in data set [1] of 27.1 min.
In the case of Ac-KVLGRLVAVLGRLV-NH2, the MIC was 64 µg/mL with Klebsiella pneumoniae; greater than 64 µg/mL in the data set on Acinetobacter baumannii; greater than 64 µg/mL with Salmonella typhimurium; 64 µg/mL with Escherichia coli; 64 µg/mL in the data set with Pseudomonas aeruginosa; 16 µg/mL in the data set with Staphylococcus aureus. In addition, in data set [1], the Time came to 27.4 min.
For Ac-KVLGRLVKALGRLV-NH2, the MIC was greater than 64 µg/mL in the data set with Klebsiella pneumoniae; greater than 64 µg/mL with Acinetobacter baumannii; 64 µg/mL in the data set with Salmonella typhimurium; greater than 64 µg/mL in the data set with Escherichia coli; greater than 64 µg/mL with Pseudomonas aeruginosa; greater than 64 µg/mL in the data set on Staphylococcus aureus. The compound also displayed a Time in data set [1] of 25.2 min.
Regarding Ac-KVLGRLVKVLGALV-NH2, the MIC is greater than 64 µg/mL with Klebsiella pneumoniae; greater than 64 µg/mL in the data set on Acinetobacter baumannii; greater than 64 µg/mL with Salmonella typhimurium; greater than 64 µg/mL in the data set on Escherichia coli; 16 µg/mL in the data set on Pseudomonas aeruginosa; 32 µg/mL in the data set with Staphylococcus aureus. In data set [1], the Time worked out at 27 min.
Regarding Ac-AVLGRLVKVLGRLV-NH2, the minimum inhibitory concentration (MIC) in the data set on Klebsiella pneumoniae is greater than 64 µg/mL; in the data set with Acinetobacter baumannii, greater than 64 µg/mL; with Salmonella typhimurium, greater than 64 µg/mL; with Escherichia coli, greater than 64 µg/mL; with Pseudomonas aeruginosa, 64 µg/mL; in the data set on Staphylococcus aureus, 16 µg/mL. In data set [1], this compound returned a Time of 27.8 min.
For the compound Ac-KVLGRLVKVAGRLV-NH2, the MIC in the data set on Klebsiella pneumoniae is greater than 64 µg/mL; with Acinetobacter baumannii, greater than 64 µg/mL; in the data set with Salmonella typhimurium it was 64 µg/mL; in the data set with Escherichia coli, greater than 64 µg/mL; in the data set on Pseudomonas aeruginosa it was greater than 64 µg/mL; in the data set with Staphylococcus aureus it was greater than 64 µg/mL. Also, in data set [1], the Time is 22 min.
Regarding Ac-KVLGRAVKVLGRLV-NH2, the MIC in the data set on Klebsiella pneumoniae is greater than 64 µg/mL; with Acinetobacter baumannii, greater than 64 µg/mL; with Salmonella typhimurium, 64 µg/mL; with Escherichia coli it was greater than 64 µg/mL; in the data set on Pseudomonas aeruginosa, greater than 64 µg/mL; in the data set on Staphylococcus aureus it was greater than 64 µg/mL. In data set [1], this compound registered a Time of 22.3 min.
